Assay results taken from patent publication US10100282B2, “Differentiation of pluripotent cells” (FUJIFILM Cellular Dynamics, Inc., priority 2009, dated 2018).

B1: GCSF: granulocyte colony-stimulating factor (protein, UniProt P09919 31-207, looked up)
Granulocyte …: TPLGPASSLPQSFLLKCLEQVRKIQGDGAALQEKLVSECATYKLCHPEELVLLGHSLGIPWAPLSSCPSQALQLAGCLSQLHSGLFLYQGLLQALEGISPELGPTLDTLQLDVADFATTIWQQMEELGMAPALQPTQGAMPAFASAFQRRAGGVLVASHLQSFLEVSYRVLRHLAQP
B2: FLT-3: Flt3 ligand, the endogenous ligand for FLT3 (protein, UniProt P49771 27-235, looked up)
Fms-related tyrosine kinase 3 …: TQDCSFQHSPISSDFAVKIRELSDYLLQDYPVTVASNLQDEELCGGLWRLVLAQRWMERLKTVAGSKMQGLLERVNTEIHFVTKCAFQPPPSCLRFVQTNISRLLQETSEQLVALKPWITRQNFSRCLELQCQPDSSTLPPPWSPRPLEATAPTAPQPPLLLLLLLPVGLLLLAAAWCLHWQRTRRRTPRPGEQVPPVPSPQDLLLVEH

How the values were obtained:
hESCs and iPSCs = assay: EB formation from single cell suspensions using ROCK inhibitors/PVA; format: cell-based, human; details: 18-24 hrs
Experimental: hESCs and iPSCs adapted to feeder free growth on matrigel maintained using mTESR were preconditioned for three days in the presence of mTesR-GF containing 0.1 ng/ml TGF-β and 20 ng/ml FGF-2. To initiate differentiation from single cells the, the cultures were treated with TrypLE™ (Invitrogen) for 6 minutes and the cells suspension was collected in (1) plain EB basal media, (2) EB basal media containing PVA, (3) EB basal media containing 0.5% PVA and 1 μM H1152 or 10 μM Y27632 ROCK inhibitor, or (4) EB basal media containing only 1 uM H1152 ROCK inhibitor. The cells were collected and washed once and plated in the respective media formulations on a low attachment plate at 37 C. The EB formation status was checked at 18-24 hrs later under a phase contrast microscope.

pluripotent cells = assay: Hematopoietic differentiation in defined cell culture media with single growth factors; format: cell-based; details: factor alone in a cell culture media
hESCs = assay: Cytokine matrix: serum-free EB hematopoietic differentiation, surface markers by flow cytometry; format: cell-based, human; details: for role during EB differentiation: serum free hematopoietic differentiation, days 8, 12, 17
Experimental: Cells were collected from each well/condition and washed once with media. The cell pellet was digested using TrypLE™ or 0.5% trypsin for 5-10 minutes in a 37° C. incubator followed by washes with media and passage through a 70-μm cell strainer. […] Non-viable cells were excluded with 7-aminoactinomycin D (7-AAD, BD Biosciences). Live cell analysis was performed on a FACSCalibur™ or Accuri flow cytometer and Cell Quest software. hESCs adapted to feeder free growth on matrigel maintained using mTESR were preconditioned for three days in the presence of X-vivo-15 containing 0.1 ng/ml TGF-β and 20 ng/ml FGF-2. Cells were harvested using TrypLE for 6 minutes at 37 C. TrypLE™ was neutralized using EB basal media containing 1 μM ROCK inhibitor (H-1152), Soybean trypsin inhibitor (0.25 mg/ml). The cells were washed once in EB basal media containing 1 μM ROCK inhibitor and soybean trypsin inhibitor (0.25 mg/ml). The cells were plated in low attachment plates in EB basal media containing 1 μM ROCK inhibitor and soybean trypsin inhibitor (0.25 mg/ml). The media was changed the next day to EB basal media containing different cytokine formulations. […] The cytokine combinations used are listed below in Table 3. The EB cultures were half fed with fresh differentiation media every two days. The EB cultures were harvested on day 8, 12 and 17 of differentiation. The EB cultures were harvested by spinning down all the cells and digesting the EBs with TrypLE™ or 0.5% trypsin. The phenotype of the progenitor cell types was analyzed by flow cytometry and the cells were plated in methylcellulose media for CFU assays. “FLT3” refers to the Flt3 ligand below.

Molecule	CD31 expressing cells (hESCs; DAY 8, factor ABSENT) [%]	CD34 expressing cells (hESCs; DAY 8, factor ABSENT) [%]	CD43 expressing cells (hESCs; DAY 8, factor ABSENT) [%]	CD45 expressing cells (hESCs; DAY 8, factor ABSENT) [%]	FLK-1 expressing cells (hESCs; DAY 8, factor ABSENT) [%]	CD31 expressing cells (hESCs; DAY 8, factor PRESENT) [%]	CD34 expressing cells (hESCs; DAY 8, factor PRESENT) [%]	CD43 expressing cells (hESCs; DAY 8, factor PRESENT) [%]	CD45 expressing cells (hESCs; DAY 8, factor PRESENT) [%]	FLK-1 expressing cells (hESCs; DAY 8, factor PRESENT) [%]	CD31 expressing cells (hESCs; DAY 12, factor ABSENT) [%]	CD34 expressing cells (hESCs; DAY 12, factor ABSENT) [%]	CD43 expressing cells (hESCs; DAY 12, factor ABSENT) [%]	CD45 expressing cells (hESCs; DAY 12, factor ABSENT) [%]	FLK-1 expressing cells (hESCs; DAY 12, factor ABSENT) [%]	CD31 expressing cells (hESCs; DAY 12, factor PRESENT) [%]	CD34 expressing cells (hESCs; DAY 12, factor PRESENT) [%]	CD43 expressing cells (hESCs; DAY 12, factor PRESENT) [%]	CD45 expressing cells (hESCs; DAY 12, factor PRESENT) [%]	FLK-1 expressing cells (hESCs; DAY 12, factor PRESENT) [%]	other results
C[C@@H](N)[C@H]1CC[C@H](C(=O)Nc2ccncc2)CC1 [Y-27632, (R)-(+)-trans-4-(1-Aminoethyl)-N-(4-Pyridyl)cyclohexanecarboxamide]																					EB status (hESCs and iPSCs; ROCK inhibitor present (1 μM H1152 or 10 μM Y27632), 0.5% PVA present): Formed; EB status (hESCs and iPSCs; ROCK inhibitor present, PVA absent): Formed
BMP4: Bone morphogenetic protein-4	0.2	0.5	0.1	0.2	1.4	1.3	1.7	1.6	0.2	2.4	0.6	1.3	0.3	0.1	0.2	3.2	2.9	4.0	3.7	0.7	promotion of hematopoietic differentiation (pluripotent cells): did not promote hematopoietic differentiation; CD31 expressing cells (hESCs; DAY 17, factor ABSENT): 1.0%; CD34 expressing cells (hESCs; DAY 17, factor ABSENT): 2.0%; CD43 expressing cells (hESCs; DAY 17, factor ABSENT): 0.7%; CD45 expressing cells (hESCs; DAY 17, factor ABSENT): 0.3%; FLK-1 expressing cells (hESCs; DAY 17, factor ABSENT): 0.8%; CD31 expressing cells (hESCs; DAY 17, factor PRESENT): 11.9%; CD34 expressing cells (hESCs; DAY 17, factor PRESENT): 2.9%; CD43 expressing cells (hESCs; DAY 17, factor PRESENT): 12.8%; CD45 expressing cells (hESCs; DAY 17, factor PRESENT): 12.8%; FLK-1 expressing cells (hESCs; DAY 17, factor PRESENT): 2.7%; role during EB differentiation (hESCs): significant role at all time points
SCF: Stem cell factor, a cytokine which binds CD117 (c-Kit)	0.7	0.8	0.8	0.2	1.9	0.9	1.5	1.0	0.2	2.0	1.3	1.7	1.2	1.5	0.3	2.6	2.6	3.2	2.4	0.6	CD31 expressing cells (hESCs; DAY 17, factor ABSENT): 3.9%; CD34 expressing cells (hESCs; DAY 17, factor ABSENT): 2.3%; CD43 expressing cells (hESCs; DAY 17, factor ABSENT): 4.1%; CD45 expressing cells (hESCs; DAY 17, factor ABSENT): 4.0%; FLK-1 expressing cells (hESCs; DAY 17, factor ABSENT): 1.4%; CD31 expressing cells (hESCs; DAY 17, factor PRESENT): 9.3%; CD34 expressing cells (hESCs; DAY 17, factor PRESENT): 2.6%; CD43 expressing cells (hESCs; DAY 17, factor PRESENT): 9.8%; CD45 expressing cells (hESCs; DAY 17, factor PRESENT): 9.6%; FLK-1 expressing cells (hESCs; DAY 17, factor PRESENT): 2.2%
TPO: Thrombopoietin, a glycoprotein hormone	0.8	1.0	1.0	0.2	1.9	0.8	1.3	0.8	0.2	1.9	2.3	2.2	2.2	2.6	0.7	1.7	2.2	2.3	1.5	0.3	CD31 expressing cells (hESCs; DAY 17, factor ABSENT): 4.8%; CD34 expressing cells (hESCs; DAY 17, factor ABSENT): 2.5%; CD43 expressing cells (hESCs; DAY 17, factor ABSENT): 4.8%; CD45 expressing cells (hESCs; DAY 17, factor ABSENT): 4.9%; FLK-1 expressing cells (hESCs; DAY 17, factor ABSENT): 1.7%; CD31 expressing cells (hESCs; DAY 17, factor PRESENT): 8.6%; CD34 expressing cells (hESCs; DAY 17, factor PRESENT): 2.4%; CD43 expressing cells (hESCs; DAY 17, factor PRESENT): 9.2%; CD45 expressing cells (hESCs; DAY 17, factor PRESENT): 8.8%; FLK-1 expressing cells (hESCs; DAY 17, factor PRESENT): 2.0%
VEGF	0.4	0.7	0.1	0.1	2.0	1.1	1.5	1.6	0.2	1.8	0.6	1.3	0.2	0.2	0.3	3.2	2.9	4.0	3.6	0.6	promotion of hematopoietic differentiation (pluripotent cells): did not promote hematopoietic differentiation; CD31 expressing cells (hESCs; DAY 17, factor ABSENT): 1.0%; CD34 expressing cells (hESCs; DAY 17, factor ABSENT): 2.0%; CD43 expressing cells (hESCs; DAY 17, factor ABSENT): 0.9%; CD45 expressing cells (hESCs; DAY 17, factor ABSENT): 0.4%; FLK-1 expressing cells (hESCs; DAY 17, factor ABSENT): 1.4%; CD31 expressing cells (hESCs; DAY 17, factor PRESENT): 11.8%; CD34 expressing cells (hESCs; DAY 17, factor PRESENT): 2.8%; CD43 expressing cells (hESCs; DAY 17, factor PRESENT): 12.6%; CD45 expressing cells (hESCs; DAY 17, factor PRESENT): 12.7%; FLK-1 expressing cells (hESCs; DAY 17, factor PRESENT): 2.3%; role during EB differentiation (hESCs): significant role at all time points
B1	0.8	1.2	1.0	0.2	2.2	0.7	1.1	0.8	0.2	1.7	2.2	2.4	2.3	2.6	0.7	1.8	2.0	2.3	1.5	0.4	CD31 expressing cells (hESCs; DAY 17, factor ABSENT): 4.8%; CD34 expressing cells (hESCs; DAY 17, factor ABSENT): 2.7%; CD43 expressing cells (hESCs; DAY 17, factor ABSENT): 4.9%; CD45 expressing cells (hESCs; DAY 17, factor ABSENT): 4.9%; FLK-1 expressing cells (hESCs; DAY 17, factor ABSENT): 1.6%; CD31 expressing cells (hESCs; DAY 17, factor PRESENT): 8.6%; CD34 expressing cells (hESCs; DAY 17, factor PRESENT): 2.2%; CD43 expressing cells (hESCs; DAY 17, factor PRESENT): 9.1%; CD45 expressing cells (hESCs; DAY 17, factor PRESENT): 8.8%; FLK-1 expressing cells (hESCs; DAY 17, factor PRESENT): 2.1%
B2	0.5	0.9	0.3	0.2	1.6	1.0	1.4	1.4	0.2	2.2	1.5	1.7	1.4	1.2	0.5	2.4	2.6	3.0	2.7	0.5	CD31 expressing cells (hESCs; DAY 17, factor ABSENT): 1.4%; CD34 expressing cells (hESCs; DAY 17, factor ABSENT): 2.2%; CD43 expressing cells (hESCs; DAY 17, factor ABSENT): 1.1%; CD45 expressing cells (hESCs; DAY 17, factor ABSENT): 0.9%; FLK-1 expressing cells (hESCs; DAY 17, factor ABSENT): 1.3%; CD31 expressing cells (hESCs; DAY 17, factor PRESENT): 11.5%; CD34 expressing cells (hESCs; DAY 17, factor PRESENT): 2.6%; CD43 expressing cells (hESCs; DAY 17, factor PRESENT): 12.4%; CD45 expressing cells (hESCs; DAY 17, factor PRESENT): 12.3%; FLK-1 expressing cells (hESCs; DAY 17, factor PRESENT): 2.4%
